Assays:
[1] = test system: cell lines (ABE-8.1/2, BC3A, L1210, P815, WEHI-3); experiment: Survival of cell lines after incubation with Pc 4; assay type: cell-based, murine; details: Mus musculus, light or radiation study, read-out: surviving fractions of the cell lines after incubation
Protocol: Cell lines and culture conditions. WEHI-3 (murine myelocytic leukemia), L1210 (murine lymphocytic leukemia) and P815 (murine mastocytoma) cells were grown in RPMI 1640 (GibcoBRL, Grand Island, N.Y.) supplemented with 10% FBS. BC3A (murine leukemia) cells were grown in RPMI 1640 supplemented with 10 μM β-mercaptoethanol and 10% FBS; ABE-8.1/2 (murine pre-B lymphoma) cells were grown in DMEM (GibcoBRL)--10 μM β-mercaptoethanol--10% FBS. All cell lines were obtained from the American Type Culture Collection (Rockville, Md.) and were cultured at 37° C. in a humidified 5% CO2 -incubator. Prior to incubation with Pc 4, the cell lines were centrifuged and resuspended in phosphate buffered saline (PBS)--10% FBS, pH 7.4.
Photosensitization. […]
Cell line samples were plated (in triplicate) in a semi-solid medium which consisted of DMEM--20% vol/vol serum (2/3 horse serum, 1/3 FBS)--3 mM glutamine--60 μM β-mercaptoethanol--0.3% wt/vol agar. The samples were incubated at 37° C. in a humidified 5% CO2 -incubator, and colonies consisting of more than 50 cells were counted after nine days.
Statistics. […] Data are expressed as mean values±standard error of the mean (SEM). […] The significance of the differences between experimental values was assessed by means of the Student's t-test.

ABE-8.1/2 cells = experiment: Uptake of Pc 4 in mixtures of BM and cell lines; assay type: cell-based, murine
Protocol: (§1) In mixing experiments, aliquots of Ly-5.2 BM and cell lines samples were mixed at different ratios. The combined cell concentration of each sample was 1.5×10^7 cells/mL. […] The cell lines were stained with anti-Ly-5.1^FITC. This treatment allowed clear resolution of the relatively small ABE-8.1/2 and BC3A cells from the bone marrow granulocytes. Immediately prior to the analyses, propidium iodide (PI, 0.5 μg/mL) was added to the samples to allow exclusion of dead cells (PI^+) from the analyses. The samples were analyzed in a FACStar^PLUS (BD) that was equipped with an argon ion laser tuned to 488 nm (200 mW) and a dye laser tuned to 610 nm (300 mW). FITC, PE, PI and Pc 4 fluorescence emissions were collected through 530/30, 575/42, 660/10, 670/10 nm band pass filters, respectively.

BM progenitors (c-kit^+) = experiment: Uptake of Pc 4 in mixtures of BM and cell lines; assay type: cell-based, murine
Protocol: as §1

[2] = test system: multidrug resistance (mdr) pump; experiment: Uptake of Pc 4 by BM in presence of verapamil
Protocol: Uptake of Pc 4. Following a two hour incubation at 37° C. with 15 nM Pc 4, cell line and BM samples were analyzed for Pc 4 uptake by flow cytometry. BM samples were first incubated with anti-c-kit^PE (Pharmingen) and anti-Sca-1^FITC (Pharmingen), to allow analysis of the Pc 4 uptake in the committed progenitor fraction (c-kit^+,Sca-1^-) and the pluripotent stem cell fraction (c-kit^+,Sca-1^+) (Li, C. L. and G. R. Johnson Blood 85:1472 (1995)). Following a 20 minute incubation on ice, and two subsequent washes, the samples were incubated with 15 nM Pc 4. The relative Pc 4 uptake was calculated by subtracting the mean fluorescence signals of the untreated control samples from the mean Pc 4 fluorescence signals.

CFU-GM = details: 15 nM Pc 4, 5×10^6 cells/mL, 8 J/cm^2; cited from earlier work
SK-BR3 = details: 15 nM Pc 4, 5×10^6 cells/mL, 8 J/cm^2; cited from earlier work

Compound: CN(C)CCC[Si](C)(C)O[Si]1(O)n2c3c4ccccc4c2N=C2N=C(N=c4c5ccccc5c(n41)=NC1=NC(=N3)c3ccccc31)c1ccccc12 (centres unmarked) [Pc 4, hydroxysiloxy-dimethylpropyl-N-dimethyl silicon phthalocyanine]
- viability at 0.015 µM [1]: 73 to 100%
- Pc 4 uptake in mixtures versus cell line alone (ABE-8.1/2 cells; BM fraction<0.9, versus without BM): lower
- Pc 4 content in cell line (ABE-8.1/2 cells; BM/ABE-8.1/2, BM fraction 0.50): 74 Mean fluorescence/cell
- Pc 4 content in cell line (ABE-8.1/2 cells; BM/ABE-8.1/2, BM fraction 0.70): 86 Mean fluorescence/cell
- Pc 4 content in cell line (ABE-8.1/2 cells; BM/ABE-8.1/2, BM fraction 0.80): 91 Mean fluorescence/cell
- Pc 4 content in cell line (ABE-8.1/2 cells; BM/ABE-8.1/2, BM fraction 0.90): 95 Mean fluorescence/cell
- Pc 4 content in cell line (ABE-8.1/2 cells; BM/ABE-8.1/2, BM fraction 0.95): 100 Mean fluorescence/cell
- Pc 4 content in c-kit^+ BM (BM progenitors (c-kit^+); BM/ABE-8.1/2, BM fraction 0.50): 48 Mean fluorescence/cell
- Pc 4 content in c-kit^+ BM (BM progenitors (c-kit^+); BM/ABE-8.1/2, BM fraction 0.70): 52 Mean fluorescence/cell
- Pc 4 content in c-kit^+ BM (BM progenitors (c-kit^+); BM/ABE-8.1/2, BM fraction 0.80): 49 Mean fluorescence/cell
- Pc 4 content in c-kit^+ BM (BM progenitors (c-kit^+); BM/ABE-8.1/2, BM fraction 0.90): 55 Mean fluorescence/cell
- Pc 4 content in c-kit^+ BM (BM progenitors (c-kit^+); BM/ABE-8.1/2, BM fraction 0.95): 62 Mean fluorescence/cell
- Pc 4 content in c-kit^+ BM (BM progenitors (c-kit^+); BM/BC3A, BM fraction 0.50): 48 Mean fluorescence/cell
- Pc 4 content in c-kit^+ BM (BM progenitors (c-kit^+); BM/BC3A, BM fraction 0.70): 53 Mean fluorescence/cell
- Pc 4 content in c-kit^+ BM (BM progenitors (c-kit^+); BM/BC3A, BM fraction 0.80): 61 Mean fluorescence/cell
- Pc 4 content in c-kit^+ BM (BM progenitors (c-kit^+); BM/BC3A, BM fraction 0.90): 68 Mean fluorescence/cell
- Pc 4 content in c-kit^+ BM (BM progenitors (c-kit^+); BM/BC3A, BM fraction 0.95): 64 Mean fluorescence/cell
- Pc 4 content in c-kit^+ BM (BM progenitors (c-kit^+); BM/L1210, BM fraction 0.50): 35 Mean fluorescence/cell
- Pc 4 content in c-kit^+ BM (BM progenitors (c-kit^+); BM/L1210, BM fraction 0.70): 43 Mean fluorescence/cell
- Pc 4 content in c-kit^+ BM (BM progenitors (c-kit^+); BM/L1210, BM fraction 0.80): 48 Mean fluorescence/cell
- Pc 4 content in c-kit^+ BM (BM progenitors (c-kit^+); BM/L1210, BM fraction 0.90): 54 Mean fluorescence/cell
- Pc 4 content in c-kit^+ BM (BM progenitors (c-kit^+); BM/L1210, BM fraction 0.95): 60 Mean fluorescence/cell
- Pc 4 content in c-kit^+ BM (BM progenitors (c-kit^+); BM/P815, BM fraction 0.50): 45 Mean fluorescence/cell
- Pc 4 content in c-kit^+ BM (BM progenitors (c-kit^+); BM/P815, BM fraction 0.70): 51 Mean fluorescence/cell
- Pc 4 content in c-kit^+ BM (BM progenitors (c-kit^+); BM/P815, BM fraction 0.80): 64 Mean fluorescence/cell
- Pc 4 content in c-kit^+ BM (BM progenitors (c-kit^+); BM/P815, BM fraction 0.90): 63 Mean fluorescence/cell
- Pc 4 content in c-kit^+ BM (BM progenitors (c-kit^+); BM/P815, BM fraction 0.95): 64 Mean fluorescence/cell
- Pc 4 content in c-kit^+ BM (BM progenitors (c-kit^+); BM/WEHI-3, BM fraction 0.50): 30 Mean fluorescence/cell
- Pc 4 content in c-kit^+ BM (BM progenitors (c-kit^+); BM/WEHI-3, BM fraction 0.70): 38 Mean fluorescence/cell
- Pc 4 content in c-kit^+ BM (BM progenitors (c-kit^+); BM/WEHI-3, BM fraction 0.80): 46 Mean fluorescence/cell
- Pc 4 content in c-kit^+ BM (BM progenitors (c-kit^+); BM/WEHI-3, BM fraction 0.90): 58 Mean fluorescence/cell
- Pc 4 content in c-kit^+ BM (BM progenitors (c-kit^+); BM/WEHI-3, BM fraction 0.95): 65 Mean fluorescence/cell
- Pc 4 uptake of BM progenitor fractions in mixtures versus BM alone (BM progenitors (c-kit^+); all mixtures (p>0.07)): lower, though not significantly
- effect of verapamil on uptake of Pc 4 ([2]; BM samples, verapamil during incubation): did not increase the uptake
- comparison with BPD-DA and benzochlorin ([2]; application with samples containing mdr^+ leukemic cells): compared favorable to BPD-DA
- substrate of the multidrug resistance pump ([2]; murine pluripotent stem cells): not a substrate
- surviving fraction of human cells (CFU-GM): 1.0
- surviving fraction of human cells (SK-BR3): < 10^-5

From patent US6159733A, “Method for photoinactivating malignant cells” (priority 1996, dated 2000)
